{
  "source": "patent US20190307843A1",
  "about": "“SINGLE DOSE METHODS FOR PREVENTING AND TREATING FUNGAL INFECTIONS” (Cidara Therapeutics, Inc., priority 2016, published 2019)",
  "key": {"[1]": {"system": "A. fumigatus strain AF293", "experiment": "Murine model of pulmonary aspergillosis (Example 13), terminal lung burden", "type": "in vivo, Aspergillus fumigatus", "method": "A secondary endpoint for the study was terminal lung tissue burden. Immediately following confirmation of death, carcasses were frozen at −20° C. prior to tissue dissection and processing. The frozen carcasses were thawed at room temperature and the lungs removed and placed into pre-weighed bead-beating tubes containing 2 mL of PBS and subjected to mechanical disruption. Organ homogenates were diluted further in PBS and quantitatively cultured for A. fumigatus onto SABC and incubated at 30° C. for 24-48 hours. In addition, a 300 μL aliquot of the undiluted lung tissue homogenate was stored at −80° C. for possible optional assessment of burden by qPCR."}, "[2]": {"system": "C. albicans SC-5314 biofilms", "experiment": "Mature phase biofilms (treatment), XTT metabolic activity and CSLM", "type": "cell-based, Candida albicans"}, "A. fumigatus AF293": {"system": "A. fumigatus AF293", "experiment": "Pulmonary aspergillosis, prophylaxis, neutropenic ICR mice (Examples 17, 18), survival", "type": "in vivo, Aspergillus fumigatus", "method": "Intranasal infection with A. fumigatus AF293 (10^5 CFU/mouse) on Day 0. Prophylaxis CD101 as a single dose (IP; 5, 10, 20 mg/kg) or posaconazole (PO; 2 and 10 mg/kg) 1 day prior to infection. Survival monitored for 10 days.\nIntranasal challenge with A. fumigatus AF293 (10^5 CFU/mouse) was initiated on Day 0 and prophylaxis with CD101 as a single dose (IP; 5, 10, 20 mg/kg) or posaconazole (PO; 2 and 10 mg/kg) was started 1 day prior to infection. Survival was monitored for 10 days."}, "C. auris": {"system": "C. auris", "experiment": "Murine model of disseminated candidiasis, C. auris infection, kidney CFU and survival", "type": "in vivo, Candida auris", "conditions": "CD101 20 mg/kg IP"}, "Candida auris strains": {"system": "Candida auris strains", "experiment": "Candida auris antifungal susceptibility testing (CLSI M27-A3), 38 strains", "type": "cell-based", "conditions": "Candidozyma auris, 24 h, 24 h, read-out: MIC"}},
  "note": "Like-named read-outs stand apart in the source and are kept apart here. Starred links: 1 amine or outer side, 2 acyl side, 3 side chain; linkers in the order of their positions; H or OH if unused. Positions of bridges follow the written chain, without caps; N, C: chain ends. Non-standard residues stand in square brackets, D forms with d. Residues, ends and D or L forms follow the SMILES beside them. *: point of attachment. Orn(4R-OH,5R-OCH2CH2NMe3+) = C[N+](C)(C)CCO[C@@H](N[*:3])[C@H](O)C[C@H](N[*:1])C(=O)[*:2]; pTerphenylCO(4''-OnC5H11) = CCCCCOc1ccc(-c2ccc(-c3ccc(C(=O)*)cc3)cc2)cc1; hTyr(3S-OH,4S-OH) = N[C@H](C(=O)O)[C@H](O)[C@@H](O)c1ccc(O)cc1; Pro(3S-OH,4S-Me) = C[C@H]1CN[C@H](C(=O)O)[C@H]1O; Hyp = O=C(O)[C@@H]1C[C@@H](O)CN1",
  "data": [
    {"smiles": "CCCCCOc1ccc(-c2ccc(-c3ccc(C(=O)N[C@H]4C[C@@H](O)[C@@H](OCC[N+](C)(C)C)NC(=O)[C@@H]5[C@@H](O)[C@@H](C)CN5C(=O)[C@H]([C@@H](C)O)NC(=O)[C@H]([C@H](O)[C@@H](O)c5ccc(O)cc5)NC(=O)[C@@H]5C[C@@H](O)CN5C(=O)[C@H]([C@@H](C)O)NC4=O)cc3)cc2)cc1", "note": "[CD101] ({pTerphenylCO(4''-OnC5H11)}-[Orn(4R-OH,5R-OCH2CH2NMe3+)]T[Hyp][hTyr(3S-OH,4S-OH)]T[Pro(3S-OH,4S-Me)]; lactam 1-C)", "values": [
      {"measurement": "Group Geometric mean (lung burden)", "setting": "[1]; CD101 5 mg/kg IP Day 0", "value": "5.65 × 10^4 CFU/g"},
      {"measurement": "Log10 Group Geometric mean (lung burden)", "setting": "[1]; CD101 5 mg/kg IP Day 0", "value": 4.75, "unit": "CFU/g"},
      {"measurement": "Log10 reduction from vehicle control", "setting": "[1]; CD101 5 mg/kg IP Day 0", "value": "−0.98", "unit": "CFU/g"},
      {"measurement": "Group Geometric mean (lung burden)", "setting": "[1]; CD101 5 mg/kg IP Day −1", "value": "3.75 × 10^4 CFU/g"},
      {"measurement": "Log10 Group Geometric mean (lung burden)", "setting": "[1]; CD101 5 mg/kg IP Day −1", "value": 4.57, "unit": "CFU/g"},
      {"measurement": "Log10 reduction from vehicle control", "setting": "[1]; CD101 5 mg/kg IP Day −1", "value": "−0.80", "unit": "CFU/g"},
      {"measurement": "Group Geometric mean (lung burden)", "setting": "[1]; CD101 5 mg/kg IP Day −3", "value": "5.71 × 10^4 CFU/g"},
      {"measurement": "Log10 Group Geometric mean (lung burden)", "setting": "[1]; CD101 5 mg/kg IP Day −3", "value": 4.76, "unit": "CFU/g"},
      {"measurement": "Log10 reduction from vehicle control", "setting": "[1]; CD101 5 mg/kg IP Day −3", "value": "−0.98", "unit": "CFU/g"},
      {"measurement": "Group Geometric mean (lung burden)", "setting": "[1]; CD101 5 mg/kg IP Day −5", "value": "6.36 × 10^4 CFU/g"},
      {"measurement": "Log10 Group Geometric mean (lung burden)", "setting": "[1]; CD101 5 mg/kg IP Day −5", "value": 4.80, "unit": "CFU/g"},
      {"measurement": "Log10 reduction from vehicle control", "setting": "[1]; CD101 5 mg/kg IP Day −5", "value": "−1.03", "unit": "CFU/g"},
      {"measurement": "Group Geometric mean (lung burden)", "setting": "[1]; CD101 10 mg/kg IP Day −1", "value": "5.17 × 10^3 CFU/g"},
      {"measurement": "Log10 Group Geometric mean (lung burden)", "setting": "[1]; CD101 10 mg/kg IP Day −1", "value": 3.71, "unit": "CFU/g"},
      {"measurement": "Log10 reduction from vehicle control", "setting": "[1]; CD101 10 mg/kg IP Day −1", "value": 0.06, "unit": "CFU/g"},
      {"measurement": "Group Geometric mean (lung burden)", "setting": "[1]; CD101 10 mg/kg IP Day −3", "value": "7.34 × 10^3 CFU/g"},
      {"measurement": "Log10 Group Geometric mean (lung burden)", "setting": "[1]; CD101 10 mg/kg IP Day −3", "value": 3.87, "unit": "CFU/g"},
      {"measurement": "Log10 reduction from vehicle control", "setting": "[1]; CD101 10 mg/kg IP Day −3", "value": "−0.09", "unit": "CFU/g"},
      {"measurement": "Group Geometric mean (lung burden)", "setting": "[1]; CD101 10 mg/kg IP Day −5", "value": "3.40 × 10^4 CFU/g"},
      {"measurement": "Log10 Group Geometric mean (lung burden)", "setting": "[1]; CD101 10 mg/kg IP Day −5", "value": 4.53, "unit": "CFU/g"},
      {"measurement": "Log10 reduction from vehicle control", "setting": "[1]; CD101 10 mg/kg IP Day −5", "value": "−0.76", "unit": "CFU/g"},
      {"measurement": "Group Geometric mean (lung burden)", "setting": "[1]; CD101 20 mg/kg IP Day −1", "value": "1.12 × 10^4 CFU/g"},
      {"measurement": "Log10 Group Geometric mean (lung burden)", "setting": "[1]; CD101 20 mg/kg IP Day −1", "value": 4.05, "unit": "CFU/g"},
      {"measurement": "Log10 reduction from vehicle control", "setting": "[1]; CD101 20 mg/kg IP Day −1", "value": "−0.28", "unit": "CFU/g"},
      {"measurement": "Group Geometric mean (lung burden)", "setting": "[1]; CD101 20 mg/kg IP Day −3", "value": "4.92 × 10^4 CFU/g"},
      {"measurement": "Log10 Group Geometric mean (lung burden)", "setting": "[1]; CD101 20 mg/kg IP Day −3", "value": 4.69, "unit": "CFU/g"},
      {"measurement": "Log10 reduction from vehicle control", "setting": "[1]; CD101 20 mg/kg IP Day −3", "value": "−0.92", "unit": "CFU/g"},
      {"measurement": "Group Geometric mean (lung burden)", "setting": "[1]; CD101 20 mg/kg IP Day −5", "value": "8.35 × 10^3 CFU/g"},
      {"measurement": "Log10 Group Geometric mean (lung burden)", "setting": "[1]; CD101 20 mg/kg IP Day −5", "value": 3.92, "unit": "CFU/g"},
      {"measurement": "Log10 reduction from vehicle control", "setting": "[1]; CD101 20 mg/kg IP Day −5", "value": "−0.15", "unit": "CFU/g"},
      {"measurement": "metabolic activity (XTT) of mature biofilms", "setting": "[2]; CD101 0.25 and 1 μg/ml, 24 h, vs untreated", "value": "significantly less metabolic activity"},
      {"measurement": "thickness of biofilms", "setting": "[2]; CD101, untreated control 43 μm", "value": 24, "unit": "μm"},
      {"measurement": "survival rate", "setting": "A. fumigatus AF293; CD101 20 mg/kg IP single dose 1 day prior to infection, 10 days", "value": 30, "unit": "%"},
      {"measurement": "survival", "setting": "A. fumigatus AF293; single CD101 dose (IP; 5, 10, 20 mg/kg) one day prior to infection", "value": "dose-dependent increase in survival rate"},
      {"measurement": "percent survival at the end of the study", "setting": "C. auris; 2 doses, Day 14", "value": 80, "unit": "%"},
      {"measurement": "average reduction in kidney CFU compared to fluconazole, amphotericin B, and vehicle treated groups", "setting": "C. auris; Day 1 and Day 4, Day 8", "value": 3, "unit": "log"},
      {"measurement": "MIC", "setting": "Candida auris strains; strain 1 VPCI 669/P/12", "value": 0.5, "unit": "µg/mL"},
      {"measurement": "MIC", "setting": "Candida auris strains; strain 2 VCPI 671/P/12", "value": 0.5, "unit": "µg/mL"},
      {"measurement": "MIC", "setting": "Candida auris strains; strain 3 VCPI 674/P/12", "value": 0.25, "unit": "µg/mL"},
      {"measurement": "MIC", "setting": "Candida auris strains; strain 4 VCPI 683/P/12", "value": 0.5, "unit": "µg/mL"},
      {"measurement": "MIC", "setting": "Candida auris strains; strain 5 VCPI 692/P/12", "value": 0.5, "unit": "µg/mL"},
      {"measurement": "MIC", "setting": "Candida auris strains; strain 6 VCPI 712/P/12", "value": 0.25, "unit": "µg/mL"},
      {"measurement": "MIC", "setting": "Candida auris strains; strain 7 VCPI 471/P/13", "value": 0.5, "unit": "µg/mL"},
      {"measurement": "MIC", "setting": "Candida auris strains; strain 8 VCPI 475/P/13", "value": 0.5, "unit": "µg/mL"},
      {"measurement": "MIC", "setting": "Candida auris strains; strain 9 VCPI 478/P/13", "value": 0.25, "unit": "µg/mL"},
      {"measurement": "MIC", "setting": "Candida auris strains; strain 10 VCPI 479/P/13", "value": 0.25, "unit": "µg/mL"},
      {"measurement": "MIC", "setting": "Candida auris strains; strain 11 VCPI 480/P/13", "value": 0.25, "unit": "µg/mL"},
      {"measurement": "MIC", "setting": "Candida auris strains; strain 12 VCPI 482/P/13", "value": 0.25, "unit": "µg/mL"},
      {"measurement": "MIC", "setting": "Candida auris strains; strain 13 VCPI 483/P/13", "value": 0.25, "unit": "µg/mL"},
      {"measurement": "MIC", "setting": "Candida auris strains; strain 14 VCPI 1130/P/13", "value": 0.5, "unit": "µg/mL"},
      {"measurement": "MIC", "setting": "Candida auris strains; strain 15 VCPI 1132/P/13", "value": 0.5, "unit": "µg/mL"},
      {"measurement": "MIC", "setting": "Candida auris strains; strain 16 VCPI 1133/P/13", "value": 16, "unit": "µg/mL"},
      {"measurement": "MIC", "setting": "Candida auris strains; strain 17 VCPI 105/P/14", "value": 0.25, "unit": "µg/mL"},
      {"measurement": "MIC", "setting": "Candida auris strains; strain 18 VCPI 107/P/14", "value": 0.125, "unit": "µg/mL"},
      {"measurement": "MIC", "setting": "Candida auris strains; strain 19 VCPI 510/P/14", "value": 0.25, "unit": "µg/mL"},
      {"measurement": "MIC", "setting": "Candida auris strains; strain 20 VCPI 511/P/14", "value": 0.25, "unit": "µg/mL"}
    ]}
  ]
}
